Measured values reported in PubChem BioAssay AID588573 (Sanford-Burnham Center for Chemical Genomics, 2011).
Calls of active or inactive are those of the source. The rule behind the calls is not given here.

What follows are compounds tested against Caspase-3 (Homo sapiens) + Caspase-9 (Homo sapiens) (UniProt P42574+P55211) (assay: CASP3 and CASP9 cascade activity modulators, specificity counterscreen for apoptotic protease activating factor 1 activator project, concentration-response, cell-free, fluorescence, leucine zipper CASP9, ultra-HTS actives (AID 588573)). Conditions: LZ-caspase-9/caspase-3 coupled fluorogenic activity assay.
Caspase-3 (Homo sapiens) + Caspase-9 (Homo sapiens), sequence (P42574 whole entry, looked up): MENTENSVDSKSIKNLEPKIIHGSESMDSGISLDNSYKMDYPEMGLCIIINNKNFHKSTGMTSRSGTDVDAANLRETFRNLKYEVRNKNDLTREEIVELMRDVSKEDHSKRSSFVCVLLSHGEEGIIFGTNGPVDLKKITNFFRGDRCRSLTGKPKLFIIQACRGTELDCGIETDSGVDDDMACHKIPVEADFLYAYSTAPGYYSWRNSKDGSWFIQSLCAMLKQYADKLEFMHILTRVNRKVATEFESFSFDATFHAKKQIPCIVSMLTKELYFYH
Caspase-3 (Homo sapiens) + Caspase-9 (Homo sapiens), sequence (P55211 whole entry, looked up): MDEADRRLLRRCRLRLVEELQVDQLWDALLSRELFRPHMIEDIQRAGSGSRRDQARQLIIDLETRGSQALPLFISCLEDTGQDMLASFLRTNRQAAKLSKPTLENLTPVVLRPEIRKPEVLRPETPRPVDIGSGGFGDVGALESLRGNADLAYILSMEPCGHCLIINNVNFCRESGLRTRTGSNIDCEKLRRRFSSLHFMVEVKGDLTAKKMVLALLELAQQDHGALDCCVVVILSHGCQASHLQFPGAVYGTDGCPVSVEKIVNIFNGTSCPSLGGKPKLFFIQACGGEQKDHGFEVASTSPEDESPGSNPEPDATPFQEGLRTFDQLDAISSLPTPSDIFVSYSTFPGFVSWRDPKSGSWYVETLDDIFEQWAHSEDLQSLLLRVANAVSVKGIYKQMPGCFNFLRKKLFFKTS

Row | SMILES | EC50 | IC50 (inhibition of caspase signal) [µM]
1 | C=C(C)C(=O)Nc1cccc(C2=NOC3(C2)C[C@H](C(N)=O)N(C(=O)c2ccccc2)C3)c1 (some centres undefined) | > 100 µM (inactive) | 
2 | N#C/C(=C\c1ccc(OCc2ccc(Cl)cc2)cc1)C(=O)Nc1cccc(C(=O)O)c1 |  | 15.6
3 | C=C(C)C(=O)Nc1cccc(C2=NOC3(C2)C[C@@H](C(N)=O)N(C(=O)CCCCC)C3)c1 (some centres undefined) | > 100 µM (inactive) | 
4 | CCOc1ccc(C(=O)/C=C/Nc2ccc(S(=O)(=O)N=C(N)N)cc2)cc1 | > 100 µM (inactive) | 
5 | C=C(C)C(=O)Nc1cccc(C2=NOC3(C2)C[C@@H](C(N)=O)N(C(=O)/C=C/C=C/C)C3)c1 (some centres undefined) | > 100 µM (inactive) | 
6 | O=C(Nc1nc2ccsc2c(=O)s1)c1ccco1 | > 100 µM (inactive) | 
7 | C=C(C)C(=O)Nc1cccc(C2=NOC3(C2)C[C@H](C(N)=O)N(C(=O)c2ccccc2C(=O)c2ccccc2)C3)c1 (some centres undefined) | > 100 µM (inactive) | 
8 | C=C(C)C(=O)Nc1cccc(C2=NOC3(C2)C[C@@H](C(N)=O)N(C(=O)C(=C)C)C3)c1 (some centres undefined) | > 100 µM (inactive) | 
9 | C=CC1=C(C(=O)O)N2C(=O)[C@@H](NC(=O)/C(=N\OCC(=O)O)c3csc(N)n3)[C@H]2SC1 | > 100 µM (inactive) | 
10 | CC(Cc1c[nH]c2ccccc12)C(=O)O (centres undefined) | > 100 µM (inactive) | 
11 | O=C(CCS(=O)(=O)c1ccc(Br)cc1)NCc1ccco1 | > 100 µM (inactive) | 
12 | C=C(C)C(=O)Nc1cccc(C2=NOC3(C2)C[C@@H](C(N)=O)N(C(=O)/C=C/CC)C3)c1 (some centres undefined) | > 100 µM (inactive) | 
13 | COc1ccc(/C=C2\SC(=S)N(CCC(=O)Nc3ccc(C(=O)O)cc3)C2=O)cc1OC |  | 14.6
14 | CC(CNc1ccccc1O)C(=O)O (centres undefined) | > 100 µM (inactive) | 
15 | O=C1C2(CCCC13COC(c1ccc(O)cc1)OC3)COC(c1ccc(O)cc1)OC2 (centres undefined) | > 100 µM (inactive) | 
16 | Cc1cc(C)n(CC(C)C(=O)O)n1 (centres undefined) | > 100 µM (inactive) | 
17 | CC(C)(CS(=O)(=O)[O-])NC(=O)CC[N+](C)(C)CCO | > 100 µM (inactive) | 
18 | C=CC1=C(C(=O)O)N2C(=O)[C@@H](NC(=O)/C(=N/OCC(=O)O)c3csc(N)n3)[C@H]2SC1 | > 100 µM (inactive) | 
19 | CC(/C=C\c1cccnc1)=C/C(=O)O | > 100 µM (inactive) | 
20 | COc1cc([N+](=O)[O-])ccc1NC(=O)COC(=O)c1ccc(NC(N)=O)cc1 | > 100 µM (inactive) | 
21 | C=C(C)C(=O)Nc1cccc(C2=NOC3(C2)C[C@@H](C(N)=O)N(C(=O)c2cc([N+](=O)[O-])cc([N+](=O)[O-])c2C)C3)c1 (some centres undefined) | > 100 µM (inactive) | 
22 | N#CCCn1cc(C(CC(=O)c2ccc(Br)cc2)C(=O)O)c2ccccc21 (centres undefined) | > 100 µM (inactive) | 
23 | C=C(C)C(=O)Nc1cccc(C2=NOC3(C2)C[C@H](C(N)=O)N(C(=O)/C=C/C)C3)c1 (some centres undefined) | > 100 µM (inactive) | 
24 | CCOc1ccccc1NC(=O)CCS(=O)(=O)c1ccc(Br)cc1 | > 100 µM (inactive) | 
25 | COC(=O)c1ccccc1-c1ccc(/C=C2\C(=O)N(c3ccccc3)N=C2c2ccccc2)o1 | > 100 µM (inactive) | 
26 | C=C(C)C(=O)Nc1cccc(C2=NOC3(C2)C[C@@H](C(N)=O)N(C(=O)/C(C)=C/C)C3)c1 (some centres undefined) | > 100 µM (inactive) | 
27 | CCN(CC)CCOc1ccc2c(c1)C(=NNC(=O)c1ccccn1)c1cc(OCCN(CC)CC)ccc1-2 | > 100 µM (inactive) | 
28 | COc1ccc([N+](=O)[O-])cc1NC(=O)CCS(=O)(=O)c1ccc(Br)cc1 | > 100 µM (inactive) | 
29 | CCc1ccc(N=C2NC(=O)/C(=C/c3cc(Br)c(OCC(=O)O)c(OC)c3)S2)cc1 |  | 23.6
